Usually IC50 stands for the concentration needed to halve the response being measured.

For one test, the target named is T1, CDK2/cyclin A (Homo sapiens, UniProt P24941).
T1 construct: made in house; host or cells: CDK2: insect cells (baculovirus); cyclin A: E. coli
The test can be described thus: Inhibition of CDK2/cyclin A retinoblastoma kinase activity (Ki; % inhibition). Format: biochemical. Particulars: apparent Ki, CDK2/cyclin A, Rb substrate. Here is the method: (§1) Cyclin-dependent kinase activity was measured by quantifying the enzyme-catalyzed, time-dependent incorporation of radioactive phosphate from [^32P]ATP or [^33P]ATP into a protein substrate. Unless noted otherwise, assays were performed in 96-well plates in a total volume of 50 μL, in the presence of 10 mM HEPES (N-[2-hydroxyethyl]piperazine-N′-[2-ethanesulfonic acid]) (pH 7.4), 10 mM MgCl2, 25 μM adenosine triphosphate (ATP), 1 mg/mL ovalbumin, 5 μg/mL leupeptin, 1 mM dithiothreitol, 10 mM β-glycerophosphate, 0.1 mM sodium vanadate, 1 mM sodium fluoride, 2.5 mM ethylene glycol-bis(β-aminoethyl ether)-N,N,N′N′-tetraacetic acid (EGTA), 2% (v/v) dimethylsulfoxide, and 0.03-0.4 μCi [^32/33P]ATP per reaction. Reactions were initiated with enzyme, incubated at 30° C., and terminated after 20 minutes by the addition of ethylenediaminetetraacetic acid (EDTA) to 250 mM. The phosphorylated substrate was then captured on a nitrocellulose or phosphocellulose membrane using a 96-well filtration manifold, and unincorporated radioactivity was removed by repeated washing with 0.85% phosphoric acid. Radioactivity was quantified by exposing the dried membranes to a phosphorimager.
(§2) Compounds from combinatorial libraries were screened from 96-well plates for % inhibition of CDK activity at 30 nM theoretical compound concentration. Inhibition was measured relative to control wells that contained all reaction components including 2% (v/v) DMSO but no compound, after subtraction of background radioactivity measured in the absence of enzyme. Apparent Ki values of discrete compounds were measured by assaying enzyme activity in the presence of different inhibitor compound concentrations and subtracting the background radioactivity measured in the absence of enzyme. The kinetic parameters (kcat, Km for ATP) were measured for each enzyme under the usual assay conditions by determining the dependence of initial rates on ATP concentration. Inhibition data were fit to an equation for competitive inhibition using Kaleidagraph (Synergy Software), or were fit to an equation for competitive tight-binding inhibition using the software KineTic (BioKin, Ltd.).
CDK2 was purified using published methodology (Rosenblatt et al., “Purification and Crystallization of Human Cyclin-dependent Kinase 2,” J. Mol. Biol., 230, 1993, pp. 1317-1319) from insect cells that had been infected with a baculovirus expression vector. […] A complex of CDK2 and proteolyzed cyclin A was prepared and purified by gel filtration. The substrate for this assay was the same Rb substrate fragment used for the CDK4 assays, and the methodology of the CDK2/delta cyclin A and the CDK4/delta cyclin D3 assays was essentially the same, except that CDK2 was present at 10 nM or 19 nM. The duration of the assay was 60 or 75 minutes, during which the time-dependence of product formation was linear and initial rate conditions were met.

A further test deals with T2, human CDK4/cyclin D3 (Homo sapiens, UniProt P11802).
T2 construct: made in house; host or cells: insect cells co-infected with baculovirus vectors
T2 sequence (P11802 whole entry): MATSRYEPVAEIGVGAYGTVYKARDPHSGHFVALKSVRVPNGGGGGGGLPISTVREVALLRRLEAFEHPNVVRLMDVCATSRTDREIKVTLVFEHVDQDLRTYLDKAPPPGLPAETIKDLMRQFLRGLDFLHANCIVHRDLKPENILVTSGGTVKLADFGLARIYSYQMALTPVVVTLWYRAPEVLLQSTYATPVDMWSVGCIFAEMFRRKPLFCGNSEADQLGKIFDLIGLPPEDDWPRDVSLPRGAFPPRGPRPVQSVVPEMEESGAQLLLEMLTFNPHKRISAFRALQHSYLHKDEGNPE
T2 sequence (P30281 1-264 partner limits assumed): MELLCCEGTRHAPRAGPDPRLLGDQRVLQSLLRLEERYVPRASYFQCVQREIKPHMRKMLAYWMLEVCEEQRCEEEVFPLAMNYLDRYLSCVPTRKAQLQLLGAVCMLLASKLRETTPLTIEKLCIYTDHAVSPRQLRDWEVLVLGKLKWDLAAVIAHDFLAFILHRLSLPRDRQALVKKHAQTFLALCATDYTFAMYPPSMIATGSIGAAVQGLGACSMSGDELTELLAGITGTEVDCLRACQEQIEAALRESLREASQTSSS
The test can be described thus: Inhibition of CDK4/cyclin D retinoblastoma kinase activity (Ki; % inhibition). The conditions noted are these: apparent Ki, CDK4/cyclin D3, Rb substrate. Format: biochemical. The procedure:
as §1, §2
A complex of human CDK4 and genetically truncated (1-264) cyclin D3 was purified using traditional biochemical chromatographic techniques from insect cells that had been co-infected with the corresponding baculovirus expression vectors (see e.g., Meijer and Kim, “Chemical Inhibitors of Cyclin-Dependent Kinases,” Methods in Enzymol., 283 (1997), pp. 113-128.). The enzyme complex (5 nM) was assayed with 0.3-0.5 μg of purified recombinant retinoblastoma protein fragment (Rb) as a substrate. The engineered Rb fragment (residues 386-928 of the native retinoblastoma protein; 62.3 kDa) contains the majority of the phosphorylation sites found in the native 106-kDa protein, as well as a tag of six histidine residues for ease of purification. Phosphorylated Rb substrate was captured by microfiltration on a nitrocellulose membrane and quantified using a phosphorimager as described above. For measurement of tight-binding inhibitors, the assay duration was extended to 60 minutes, during which the time-dependence of product formation was linear and initial rate conditions were met.

For a further test, the system named is HCT-116 cell line. The test can be described thus: Inhibition of cell growth, MTT tetrazolium salt assay. The conditions noted are these: Homo sapiens, HCT-116, 120 h; MTT, three to five days. The class given is cell-based. The procedure:
Inhibition of cell growth was measured using the tetrazolium salt assay, which is based on the ability of viable cells to reduce 3-(4,5-dimethylthiazol-2-yl)-2,5-[2H]-diphenyltetrazolium bromide (MTT) to formazan (Mossman, Journal of Immunological Methods, 65, (1983), pp. 55-58). The water-insoluble purple formazan product was then detected spectrophotometrically. The HCT-116 cell line was used as a representative cancer cell line and grown in 96-well plates. Cells were plated in McCoy's 5A Medium at a volume of 135 μl/well. Plates were incubated for four hours before addition of inhibitor compounds. Different concentrations of inhibitor compounds were added in 0.5% (v/v) dimethylsulfoxide (15 μL/well), and cells were incubated at 37° C. (5% CO2) for three to five days. At the end of the incubation, MTT was added to a final concentration of 0.2 mg/mL, and cells were incubated for 4 hours more at 37° C. After centrifugation of the plates and removal of medium, the absorbance of the formazan (solubilized in dimethylsulfoxide) was measured at 540 nm. The concentration of inhibitor compound causing 50% (IC50) or 90% ([…]) inhibition of growth was determined from the linear portion of a semi-log plot of inhibitor concentration versus percent inhibition. All results were compared to control cells treated only with 0.5% (v/v) dimethylsulfoxide.
In general terms: Tetrazolium dyes change colour on reduction, which living cells bring about.

SMILES strings stand for the structures. Structures can show the parent of a compound that is named as a salt. Bounds are passed on as bounds.

For the compound `CC(C)[C@H](CN(C)C)NC(=O)c1ccc(Nc2nc(N)c(C(=O)c3c(F)cccc3F)s2)cc1` [Example A47, 4-[4-Amino-5-(2,6-difluoro-benzoyl)-thiazol-2-ylamino]-N-(1R-dimethylaminomethyl-2-methyl-propyl)-benzamide], the Ki on CDK2/cyclin A was 55 nM; at human CDK4/cyclin D3, 5 nM. The half-inhibitory concentration (IC50) in the test on HCT-116 cell line worked out at 580 nM.

As for `CC1(C)CCC(CNC(=O)c2ccc(Nc3nc(N)c(C(=O)c4c(F)cccc4F)s3)cc2)N1` (stereo not drawn) [Example A48, 4-[4-Amino-5-(2,6-difluoro-benzoyl)-thiazol-2-ylamino]-N-(5,5-dimethyl-pyrrolidin-2RS-yl-methyl)-benzamide Hydrochloride Salt], the Ki on CDK2/cyclin A came out at 55 nM; at human CDK4/cyclin D3, 5 nM. Further, in the test with HCT-116 cell line, the IC50 amounted to 580 nM.

In the case of `Nc1nc(Nc2ccc(C(=O)NCc3nccs3)cc2)sc1C(=O)c1c(F)cccc1F` [Example A49, 4-[4-Amino-5-(2,6-difluoro-benzoyl)-thiazol-2-ylamino]-N-(thiazol-2-yl-methyl)-benzamide Hydrochloride], the figures for the Ki at CDK2/cyclin A and on human CDK4/cyclin D3 were 260 nM and 11 nM, respectively. The half-maximal inhibitory concentration (IC50) with HCT-116 cell line is 320 nM.

As to `Cn1ccnc1CNC(=O)c1ccc(Nc2nc(N)c(C(=O)c3c(F)cccc3F)s2)cc1` [Example A50, 4-[4-Amino-5-(2,6-difluoro-benzoyl)-thiazol-2-ylamino]-N-(1-methyl-1H-imidazol-2-ylmethyl)-benzamide Hydrochloride Salt], the Ki was 20 nM at CDK2/cyclin A and 15 nM at human CDK4/cyclin D3. Moreover, in the test with HCT-116 cell line, the IC50 is 170 nM.

`C[C@@H]1CCC[C@H](C)N1CCNC(=O)c1ccc(Nc2nc(N)c(C(=O)c3c(F)cccc3F)s2)cc1` [Example A51]: the Ki at CDK2/cyclin A is 110 nM; at human CDK4/cyclin D3 it was 7 nM. In addition, in the test on HCT-116 cell line, the IC50 came out at 90 nM.

As to `CC(C)(CNC(=O)c1ccc(Nc2nc(N)c(C(=O)c3c(F)cccc3F)s2)cc1)N1CCCCC1` [Example A52, 4-[4-Amino-5-(2,6-difluoro-benzoyl)-thiazol-2-ylamino]-N-(2-methyl-2-piperidin-1-yl-propyl)-benzamide], the Ki on CDK2/cyclin A worked out at 170 nM; on human CDK4/cyclin D3, 9 nM. Besides, the half-inhibitory concentration (IC50) in the test with HCT-116 cell line is 130 nM.

With `CC1(C)CCCC(C)(C)N1CCNC(=O)c1ccc(Nc2nc(N)c(C(=O)c3c(F)cccc3F)s2)cc1` [Example A53, 4-[4-Amino-5-(2,6-difluoro-benzoyl)-thiazol-2-ylamino]-N-[2-(2,2,6,6-tetramethyl-piperidin-1-yl)-ethyl]-benzamide], the Ki at CDK2/cyclin A is 120 nM; on human CDK4/cyclin D3, 4 nM. The IC50 in the test with HCT-116 cell line was determined as 150 nM.

For `CN1C[C@H](O)C[C@H]1CNC(=O)c1ccc(Nc2nc(N)c(C(=O)c3c(F)cccc3F)s2)cc1` [Example A54, 4-{4-Amino-5-(2,6-difluoro-benzoyl)-thiazol-2-ylamino]-N-(4R-hydroxy-1-methyl-pyrrolidin-2S-yl-methyl)-benzamide], the Ki at CDK2/cyclin A worked out at 52 nM; at human CDK4/cyclin D3 it was 9 nM. For the same compound, the IC50 with HCT-116 cell line was found to be 600 nM.

As to `Nc1nc(Nc2ccc(C(=O)NCCn3ccnc3)cc2)sc1C(=O)c1c(F)cccc1F` [Example A55, 4-[4-Amino-5-(2,6-difluoro-benzoyl)-thiazol-2-ylamino]-N-[2-(imidazol-1-yl)-ethyl]-benzamide Dihydrochloride Salt], the Ki on CDK2/cyclin A amounted to 56 nM; on human CDK4/cyclin D3, 17 nM. Moreover, the half-inhibitory concentration (IC50) in the test on HCT-116 cell line is 3200 nM.

Take `CC1(C)CC(CNC(=O)c2ccc(Nc3nc(N)c(C(=O)c4c(F)cccc4F)s3)cc2)C(C)(C)N1` (stereo not drawn) [Example A56, 4-[4-Amino-5-(2,6-difluoro-benzoyl)-thiazol-2-ylamino]-N-(2,2,5,5-tetramethyl-pyrrolidin-3R,S-ylmethyl)-benzamide Dihydrochloride Salt]: the Ki on CDK2/cyclin A came out at 67 nM; at human CDK4/cyclin D3 it was 8 nM. Further, the IC50 with HCT-116 cell line was 4500 nM.

For the compound `C[C@@H]1CN(CCNC(=O)c2ccc(Nc3nc(N)c(C(=O)c4c(F)cccc4F)s3)cc2)C[C@H](C)N1` [Example A57], the Ki on CDK2/cyclin A was 54 nM; on human CDK4/cyclin D3 it was 10 nM. Also, the IC50 with HCT-116 cell line was determined as 3800 nM.

Take `Cc1ccncc1C(=O)c1sc(Nc2ccc(C(=O)NC[C@@H]3CCCN3C)cc2)nc1N` [Example A59, 4-{4-Amino-5-[1-(4-methyl-pyridin-3-yl)methanoyl]-thiazol-2-ylamino}-N-(1-methyl-pyrrolidin-2S-ylmethyl)-benzamide Hydrochloride Salt]: the Ki at CDK2/cyclin A turned out to be 830 nM; on human CDK4/cyclin D3, 97 nM. Also, the IC50 in the test with HCT-116 cell line came to 2900 nM.

Consider `COc1cc(Nc2nc(N)c(C(=O)c3c(F)cccc3F)s2)ccc1C(=O)NC(C)CN(C)C` (stereo not drawn) [Example A60, 4-[4-Amino-5-(2,6-difluoro-benzoyl)-thiazol-2-ylamino]-N-(2RS-dimethylamino-1-methyl-ethyl)-2-methoxy-benzamide], for which the Ki on CDK2/cyclin A worked out at 91 nM; at human CDK4/cyclin D3, 31 nM. The concentration for half-maximal inhibition (IC50) in the test on HCT-116 cell line amounted to 200 nM.

Take `CN(C)CC(C)(C)NC(=O)c1ccc(Nc2nc(N)c(C(=O)c3c(F)cccc3F)s2)cc1` [Example A61, 4-[4-Amino-5-(2,6-difluoro-benzoyl)-thiazol-2-ylamino]-N-(2-dimethylamino-1,1-dimethyl-ethyl)-benzamide Dihydrochloride]: the results for the Ki on CDK2/cyclin A and at human CDK4/cyclin D3 were 37.5 nM and 232 nM, respectively. In addition, the half-maximal inhibitory concentration (IC50) with HCT-116 cell line was found to be 220 nM.

With `Cc1ccsc1C(=O)c1sc(Nc2ccc(C(=O)N[C@H](C)CN(C)C)cc2)nc1N` [Example A62, 4-{4-Amino-5-[1-(3-methyl-thiophen-2-yl)-methanoyl]-thiazol-2-ylamino}-N-(2-dimethylamino-1R-methyl-ethyl)-benzamide Trifluoroacetic Acid Salt], the figures for the Ki at CDK2/cyclin A and on human CDK4/cyclin D3 were 2.8 nM and 120 nM, respectively. Also, the half-maximal inhibitory concentration (IC50) in the test on HCT-116 cell line was found to be 44 nM.

With `Cn1cnc(CNC(=O)c2ccc(Nc3nc(N)c(C(=O)c4c(F)cccc4F)s3)cc2)c1` [Example A63, 4-[4-Amino-5-(2,6-difluoro-benzoyl)-thiazol-2-ylamino]-N-(1-methyl-imidazol-4-yl-methyl)-benzamide Trifluoroacetic Acid Salt], the Ki on CDK2/cyclin A is 15.3 nM; on human CDK4/cyclin D3, 18 nM. For the same compound, the IC50 in the test on HCT-116 cell line turned out to be 1600 nM.

Regarding `Cn1cncc1CNC(=O)c1ccc(Nc2nc(N)c(C(=O)c3c(F)cccc3F)s2)cc1` [Example A64, 4-[4-Amino-5-(2,6-difluoro-benzoyl)-thiazol-2-ylamino]-N-(1-methylimidazol-5-yl-methyl)-benzamide], the Ki at CDK2/cyclin A was 19 nM; at human CDK4/cyclin D3, 22 nM. Further, the half-inhibitory concentration (IC50) in the test with HCT-116 cell line is > 5000 nM.

(Values after patent publication US6720346B2, “Thiazole benzamide derivatives and pharmaceutical compositions for inhibiting cell proliferation” (Agouron Pharmaceuticals, Inc., priority 2001, dated 2004).)
